Results on four molecules are retold here after patent US4740465A, “Heat-resistant sarcosine oxidase N and process for producing the same” (Noda Institute for Scientific Research, priority 1985, dated 1988).

The target in series [1] is T1, heat-resistant sarcosine oxidase N from Bacillus sp. NS-129 (present enzyme) (Bacillus sp., UniProt P23342).
T1 construct: the present enzyme is ordinarily present within the cells; made in house; host or cells: Bacillus sp; NS-129 (FERM BP-671), the native producer; purified from the cells
T1 sequence (P23342 1-387): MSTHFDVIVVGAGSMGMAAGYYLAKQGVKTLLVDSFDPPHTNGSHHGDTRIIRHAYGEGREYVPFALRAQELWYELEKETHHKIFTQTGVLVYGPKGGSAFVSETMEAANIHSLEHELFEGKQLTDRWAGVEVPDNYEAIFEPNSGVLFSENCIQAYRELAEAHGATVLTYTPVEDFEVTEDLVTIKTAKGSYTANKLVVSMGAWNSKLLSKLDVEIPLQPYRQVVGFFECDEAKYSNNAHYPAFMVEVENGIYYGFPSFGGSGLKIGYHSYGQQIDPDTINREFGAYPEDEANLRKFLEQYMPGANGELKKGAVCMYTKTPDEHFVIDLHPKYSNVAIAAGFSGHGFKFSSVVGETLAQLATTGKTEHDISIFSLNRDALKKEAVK
Nature of the series: Inhibition of heat-resistant sarcosine oxidase N. The note with it: inhibitor at 2 mM. Format: biochemical.

The target in series [2] is Known enzyme*2: the sarcosine oxidase described in J. Biochem. 89, 599 (1981) JAPAN (Corynebacterium sp., UniProt Q50LF2). The conditions noted are these: read-out: Km value for sarcosine; 37° C., pH 7.7; Table 1, known enzyme*2; cited from earlier work.
Substrate in series [3]: CNCC(=O)O
Put plainly: Km determination of heat-resistant sarcosine oxidase N (present enzyme). The series is classed as biochemical, Bacillus sp. NS-129. The note with it: other: 37° C., pH 7.7 (phosphate buffer solution). The protocol: First method: Sarcosine is oxidatively decomposed using the present enzyme and the resulting formaldehyde is determined by colorimetry.
To 0.3 ml of a 0.2 M sarcosine solution were added 0.1 ml of a 0.3 M phosphate buffer solution (pH 7.7) and 0.1 ml of a solution containing an appropriate concentration of the present enzyme. They were subjected to reaction at 37° C. for 10 minutes. The reaction was stopped by addition of 0.5 ml of a 1.0 N acetic acid solution. Thereto was added 3 ml of a color reagent (pH 6.5) containing 0.02% (V/V) of acetylacetone and 10% (W/V) of diammonium hydrogen phosphate. The resulting mixture was subjected to color development at 37° C. for 40 minutes. The absorbance of the resulting color at 410 nm was measured using a photoelectric photometer.
Second method: Sarcosine is oxidatively decomposed using the present enzyme and the resulting hydrogen peroxide (H2 O2) is determined by colorimetry.
0.1 ml of a solution containing an appropriate concentration of the present enzyme was added to a mixture of 0.5 ml of a 0.2 M sarcosine solution, 0.1 ml of a 0.3 M phosphate buffer solution (pH 7.7), 0.1 ml of a 0.2% 2,4-dichlorophenol sulfonate solution, 0.1 ml of a 70 mg/100 ml 4-aminoantipyrine solution and 0.1 ml of a 70 units/ml peroxidase solution. […] The absorbance of the resulting color at 510 nm was measured using a photoelectric photometer.

Take `O=C(O)CI` [monoiodoacetic acid]: in series [1], the “Inhibition of the enzyme” value is on record as “strongly inhibited”.
With `CCN1C(=O)C=CC1=O` [N-ethylmaleimide], the “Inhibition of the enzyme” value in series [1] is recorded as “strongly inhibited”.
Consider `CNCC(=O)O` [sarcosine, N-methylglycine], for which the Michaelis constant (Km) in series [2] is 3.4 mM.

B1: heat-resistant sarcosine oxidase N from Bacillus sp. NS-129 (present enzyme) (Bacillus sp. NS-129) (protein)
chain: T1 sequence (P23342 1-387)
notes: the present enzyme is ordinarily present within the cells; made in house; host or cells: Bacillus sp; NS-129 (FERM BP-671), the native producer; purified from the cells
Turning to B1, the Km in series [3] came out at 4.7 mM.
